Entries after “also recorded” stand apart in the source; their conditions may differ. Numbered stars: 1 amine (or outer) side, 2 acyl side, 3 side chain; on linkers, the order of the positions; unused ones are H or OH. Bridge positions count the residues as written; N and C are the ends. Square brackets hold non-standard residues; d marks the D form. Peptide text beside a SMILES is read from it. * marks the point of attachment. Orn(4R-OH,5R-OCH2CH2NMe3+) = C[N+](C)(C)CCO[C@@H](N[*:3])[C@H](O)C[C@H](N[*:1])C(=O)[*:2]; pTerphenylCO(4''-OnC5H11) = CCCCCOc1ccc(-c2ccc(-c3ccc(C(=O)*)cc3)cc2)cc1; hTyr(3S-OH,4S-OH) = N[C@H](C(=O)O)[C@H](O)[C@@H](O)c1ccc(O)cc1; Pro(3S-OH,4S-Me) = C[C@H]1CN[C@H](C(=O)O)[C@H]1O; Hyp = O=C(O)[C@@H]1C[C@@H](O)CN1

The target of one data set is MRP2 (Homo sapiens, UniProt Q92887). Put plainly: NC-160 substrate interaction, MRP2. Type of data set: in vitro ADME. As to conditions: efflux (ABC) transporter. The source says: (§1) Microbiology Spectrum Supplementary materials
(§2) Table S 4Summary of initial in vitro assessments […]
(§3) whether rezafungin can induce CYP isoforms 1A2, 2B6, or 3A4. mRNA expression) of CYP1A2 and CYP2B6, and, in the case of […]
(§4) Abbreviations: ABC = ATP binding cassette; BCRP = breast cancer resistance protein; BSEP = bile salt export pump; CYP = cytochrome P450; MATE = multidrug and toxic compound extrusion; MDCK = Madin-Darby canine kidney; MDR = multidrug resistance protein; mRNA = messenger ribonucleic acid; OAT = organic anion transporter; OATP = organic anion transporter protein; OCT – organic cation transporter; OCTN = organic cation transporter novel; P-gp = P-glycoprotein; SLC = solute carrier.

Another data set concerns the target human P-gp (Homo sapiens, UniProt P08183). Put plainly: NC-152 transporter inhibition, P-gp. Type of data set: in vitro ADME. The note with it: in vitro cell test system. From the text: (§5) Abbreviations: ABC = ATP binding cassette; BCRP = breast cancer resistance protein; BSEP = bile salt export pump; CYP = cytochrome P450; MATE =
(§6) multidrug and toxic compound extrusion; MDCK = Madin-Darby canine kidney; MDR = multidrug resistance protein; mRNA = messenger ribonucleic acid;
(§7) OAT = organic anion transporter; OATP = organic anion transporter protein; OCT – organic cation transporter; OCTN = organic cation transporter novel; P-gp =
(§8) P-glycoprotein; SLC = solute carrier.

A further data set addresses CYP2D6 (Homo sapiens, UniProt P10635). As to the kind of experiment: NC-153 time-dependent inhibition in human liver microsomes, CYP2D6. Type of data set: in vitro ADME. As to conditions: 0.1 to 25 μM.
Source text: as §1, §2, §3, §4
(In general: Microsomes from liver hold many membrane-bound enzymes, among them those of drug oxidation.)

Another data set concerns the target MDR1 (Homo sapiens, UniProt P08183). As to the kind of experiment: NC-160 substrate interaction, MDR1. Type of data set: in vitro ADME. The note with it: efflux (ABC) transporter.
Source text: as §1, §2, §3, §4

A short description of data set [1]: Study 1 safety and tolerability (TEAEs). It is filed as in vivo, human. The procedure:
After screening, subjects were admitted to the clinical research unit (CRU) prior to the first dose of rezafungin (from day −22) and were discharged from the CRU on day 22. Nine oral substrate drugs were administered as part of a cocktail containing two or more drugs once before and once after receiving rezafungin on a schedule designed to allow the washout of the drugs in the cocktail between doses and limit interactions with other drugs (Fig. 4A). […] A loading dose of rezafungin for injection (600 mg) was administered over 1 h on day 1, followed by two once-weekly 400-mg doses over 1 h on days 10 and 15. Due to a short delay in the availability of the investigation study drug, the second once-weekly dose of rezafungin and the second set of oral substrate drugs were administered on day 10 instead of day 8, although the time between doses remained sufficient for all originally planned PK samplings through 96 h postdose and for the adequate washout of the substrate drugs. The total duration of treatment was up to 89 days, including 45 days of screening and 44 days of treatment in the CRU.
as §1
Table S 2Summary of t reatment-emergent adverse e vents for Study 1
System Organ Class Safety Population Adverse Event Severity(N=26), n Rezafungin Safety Population (N=26), n
Adverse Event Mild Moderate Severe Mild Moderate Severe […]

For data set [2], the target named is T1, CYP3A4 (Homo sapiens, UniProt P08684). The note with it: human liver microsomes; midazolam and testosterone as substrates; 0.1 to 25 μM; NC-153.
Source text: as §1, §2, §3, §4

Data set [3] addresses T2, CYP1A2 (Homo sapiens, UniProt P05177). As to conditions: human liver microsomes; 0.1 to 25 μM; NC-153.
Source text: as §1, §2, §3, §4

For the next data set, the target named is CYP2B6 (Homo sapiens, UniProt P20813). As to conditions: human liver microsomes; 0.1 to 25 μM; NC-153.
Source text: as §1, §2, §3, §4

The target of data set [4] is T3, human OATP1B3 (Homo sapiens, UniProt Q9NPD5). Put plainly: NC-152 transporter inhibition, OATP1B3. Type of data set: in vitro ADME.
Source text: as §5, §6, §7, §8

The target of data set [5] is T1, CYP3A4.
Source text: as §5, §6, §7, §8

The target in data set [6] is T2, CYP1A2. Put plainly: NC-012 CYP450 inhibition screening, recombinant CYP1A2. The note with it: 10 μM, fluorogenic substrate, recombinant human CYP. It is filed as in vitro ADME.
Source text: as §1, §2, §3, §4

Data set [7] addresses T1, CYP3A4. As to the kind of experiment: NC-012 CYP450 inhibition screening, recombinant CYP3A4. Type of data set: in vitro ADME. The note with it: benzyloxyresorufin substrate, recombinant human CYP.
Source text: as §1, §2, §3, §4

Another data set addresses BCRP (Homo sapiens, UniProt Q9UNQ0). As to the kind of experiment: NC-049 BCRP substrate potential in Caco-2 monolayers. It is filed as in vitro ADME. As to conditions: with/without inhibitors.
Source text: as §1, §2, §3, §4

Another data set concerns the target T4, OCT1 (Homo sapiens, UniProt O15245).
T4 sequence (O15245 1-554): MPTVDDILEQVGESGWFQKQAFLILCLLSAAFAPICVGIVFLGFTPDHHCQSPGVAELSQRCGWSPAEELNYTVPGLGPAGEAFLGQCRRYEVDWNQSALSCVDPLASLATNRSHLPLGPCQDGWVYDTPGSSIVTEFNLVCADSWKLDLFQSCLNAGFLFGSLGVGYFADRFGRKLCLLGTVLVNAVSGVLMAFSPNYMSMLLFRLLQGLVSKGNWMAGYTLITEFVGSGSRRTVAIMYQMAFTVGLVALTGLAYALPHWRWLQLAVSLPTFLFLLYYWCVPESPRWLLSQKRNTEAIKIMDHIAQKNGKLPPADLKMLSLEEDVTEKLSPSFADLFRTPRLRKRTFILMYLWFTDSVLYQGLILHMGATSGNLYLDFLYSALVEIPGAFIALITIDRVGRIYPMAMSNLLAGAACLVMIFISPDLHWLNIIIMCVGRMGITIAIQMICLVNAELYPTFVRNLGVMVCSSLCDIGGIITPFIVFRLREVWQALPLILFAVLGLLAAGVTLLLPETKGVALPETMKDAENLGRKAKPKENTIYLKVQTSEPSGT
As to the kind of experiment: NC-152 transporter inhibition, OCT1. It is filed as in vitro ADME.
Source text: as §5, §6, §7, §8

Data set [8] addresses T3, human OATP1B3. As to the kind of experiment: NC-052 OATP1B3 substrate study in transiently transfected HEK293 cells. Type of data set: in vitro ADME.
Source text: as §1, §2, §3, §4

The mark [9] stands for this setting: in vitro cell test system, NC-152.

T3 sequence (Q9NPD5 whole entry): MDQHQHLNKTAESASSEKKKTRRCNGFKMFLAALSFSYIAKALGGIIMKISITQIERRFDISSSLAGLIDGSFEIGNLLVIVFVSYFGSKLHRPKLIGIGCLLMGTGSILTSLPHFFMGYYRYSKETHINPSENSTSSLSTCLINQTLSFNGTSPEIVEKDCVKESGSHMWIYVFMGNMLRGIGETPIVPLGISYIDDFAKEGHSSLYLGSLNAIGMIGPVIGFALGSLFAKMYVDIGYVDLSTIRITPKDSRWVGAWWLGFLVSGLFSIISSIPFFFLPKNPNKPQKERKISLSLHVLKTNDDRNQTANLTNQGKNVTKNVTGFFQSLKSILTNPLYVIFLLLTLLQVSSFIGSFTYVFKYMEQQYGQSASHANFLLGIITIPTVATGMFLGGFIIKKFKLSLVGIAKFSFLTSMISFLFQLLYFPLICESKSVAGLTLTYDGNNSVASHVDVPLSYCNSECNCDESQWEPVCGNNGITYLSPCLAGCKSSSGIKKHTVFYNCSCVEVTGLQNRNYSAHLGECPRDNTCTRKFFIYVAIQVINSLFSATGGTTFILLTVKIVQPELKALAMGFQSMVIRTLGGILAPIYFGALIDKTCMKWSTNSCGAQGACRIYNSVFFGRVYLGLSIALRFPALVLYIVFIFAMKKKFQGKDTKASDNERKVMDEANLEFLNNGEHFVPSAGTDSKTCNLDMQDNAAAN
T1 sequence (P08684 whole entry): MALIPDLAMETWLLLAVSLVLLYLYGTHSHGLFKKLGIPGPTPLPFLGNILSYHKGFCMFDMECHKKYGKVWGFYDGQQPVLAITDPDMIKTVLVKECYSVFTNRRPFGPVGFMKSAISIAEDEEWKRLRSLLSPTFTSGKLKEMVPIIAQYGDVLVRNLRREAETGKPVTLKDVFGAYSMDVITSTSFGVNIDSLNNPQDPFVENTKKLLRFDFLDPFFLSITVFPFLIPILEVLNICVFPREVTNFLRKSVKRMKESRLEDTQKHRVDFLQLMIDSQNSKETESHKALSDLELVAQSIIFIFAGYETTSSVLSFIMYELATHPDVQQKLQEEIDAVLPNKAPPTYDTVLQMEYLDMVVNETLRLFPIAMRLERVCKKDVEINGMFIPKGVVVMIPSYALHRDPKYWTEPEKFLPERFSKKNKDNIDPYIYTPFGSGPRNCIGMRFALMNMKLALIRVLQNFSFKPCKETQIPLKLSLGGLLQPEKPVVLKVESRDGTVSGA
Sequence of human P-gp (P08183 whole entry): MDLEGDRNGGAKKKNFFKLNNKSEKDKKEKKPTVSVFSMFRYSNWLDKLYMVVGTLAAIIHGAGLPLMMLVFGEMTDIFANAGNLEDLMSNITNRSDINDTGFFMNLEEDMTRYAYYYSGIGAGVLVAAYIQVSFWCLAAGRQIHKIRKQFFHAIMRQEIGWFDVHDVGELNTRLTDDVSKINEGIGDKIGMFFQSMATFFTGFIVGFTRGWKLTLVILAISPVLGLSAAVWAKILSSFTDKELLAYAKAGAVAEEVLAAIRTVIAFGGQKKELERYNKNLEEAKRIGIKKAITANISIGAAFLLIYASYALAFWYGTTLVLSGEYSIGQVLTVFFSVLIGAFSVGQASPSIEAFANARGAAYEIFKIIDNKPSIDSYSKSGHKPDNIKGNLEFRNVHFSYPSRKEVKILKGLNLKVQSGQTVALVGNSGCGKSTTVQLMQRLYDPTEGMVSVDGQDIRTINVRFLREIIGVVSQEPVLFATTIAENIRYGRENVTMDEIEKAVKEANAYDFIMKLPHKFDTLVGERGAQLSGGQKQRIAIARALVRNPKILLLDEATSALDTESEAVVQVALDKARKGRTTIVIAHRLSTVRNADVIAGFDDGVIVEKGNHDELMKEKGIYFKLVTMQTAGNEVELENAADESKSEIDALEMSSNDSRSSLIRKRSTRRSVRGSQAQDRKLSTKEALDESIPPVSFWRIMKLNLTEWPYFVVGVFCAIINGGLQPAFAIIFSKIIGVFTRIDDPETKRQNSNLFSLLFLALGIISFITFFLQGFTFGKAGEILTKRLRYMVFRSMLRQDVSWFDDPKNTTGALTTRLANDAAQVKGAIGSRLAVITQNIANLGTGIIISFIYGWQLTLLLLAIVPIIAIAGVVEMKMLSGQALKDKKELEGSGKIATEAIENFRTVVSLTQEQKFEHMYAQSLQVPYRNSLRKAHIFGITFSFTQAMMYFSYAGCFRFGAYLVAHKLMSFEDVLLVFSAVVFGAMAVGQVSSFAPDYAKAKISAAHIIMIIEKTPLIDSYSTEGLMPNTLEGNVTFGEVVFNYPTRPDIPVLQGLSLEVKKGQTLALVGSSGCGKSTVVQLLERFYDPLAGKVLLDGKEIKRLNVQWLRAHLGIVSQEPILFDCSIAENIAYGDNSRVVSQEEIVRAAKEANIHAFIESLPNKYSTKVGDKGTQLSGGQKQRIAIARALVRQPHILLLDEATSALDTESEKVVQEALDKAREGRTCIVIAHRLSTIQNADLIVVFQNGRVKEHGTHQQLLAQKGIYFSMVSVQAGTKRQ
T2 sequence (P05177 whole entry): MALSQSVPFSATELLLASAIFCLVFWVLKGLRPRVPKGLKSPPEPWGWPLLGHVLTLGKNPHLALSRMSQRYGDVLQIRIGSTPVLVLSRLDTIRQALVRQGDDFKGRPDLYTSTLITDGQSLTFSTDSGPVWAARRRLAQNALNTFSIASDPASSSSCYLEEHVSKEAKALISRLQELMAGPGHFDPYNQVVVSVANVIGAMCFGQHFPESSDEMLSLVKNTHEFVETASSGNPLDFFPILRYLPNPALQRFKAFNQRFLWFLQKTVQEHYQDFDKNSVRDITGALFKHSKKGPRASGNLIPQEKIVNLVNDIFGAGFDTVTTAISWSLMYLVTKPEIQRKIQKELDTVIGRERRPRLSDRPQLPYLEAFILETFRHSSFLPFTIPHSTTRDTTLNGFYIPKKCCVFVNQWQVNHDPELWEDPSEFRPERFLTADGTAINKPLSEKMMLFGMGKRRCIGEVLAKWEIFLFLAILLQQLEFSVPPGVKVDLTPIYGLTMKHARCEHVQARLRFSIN
Sequence of MRP2 (Q92887 whole entry): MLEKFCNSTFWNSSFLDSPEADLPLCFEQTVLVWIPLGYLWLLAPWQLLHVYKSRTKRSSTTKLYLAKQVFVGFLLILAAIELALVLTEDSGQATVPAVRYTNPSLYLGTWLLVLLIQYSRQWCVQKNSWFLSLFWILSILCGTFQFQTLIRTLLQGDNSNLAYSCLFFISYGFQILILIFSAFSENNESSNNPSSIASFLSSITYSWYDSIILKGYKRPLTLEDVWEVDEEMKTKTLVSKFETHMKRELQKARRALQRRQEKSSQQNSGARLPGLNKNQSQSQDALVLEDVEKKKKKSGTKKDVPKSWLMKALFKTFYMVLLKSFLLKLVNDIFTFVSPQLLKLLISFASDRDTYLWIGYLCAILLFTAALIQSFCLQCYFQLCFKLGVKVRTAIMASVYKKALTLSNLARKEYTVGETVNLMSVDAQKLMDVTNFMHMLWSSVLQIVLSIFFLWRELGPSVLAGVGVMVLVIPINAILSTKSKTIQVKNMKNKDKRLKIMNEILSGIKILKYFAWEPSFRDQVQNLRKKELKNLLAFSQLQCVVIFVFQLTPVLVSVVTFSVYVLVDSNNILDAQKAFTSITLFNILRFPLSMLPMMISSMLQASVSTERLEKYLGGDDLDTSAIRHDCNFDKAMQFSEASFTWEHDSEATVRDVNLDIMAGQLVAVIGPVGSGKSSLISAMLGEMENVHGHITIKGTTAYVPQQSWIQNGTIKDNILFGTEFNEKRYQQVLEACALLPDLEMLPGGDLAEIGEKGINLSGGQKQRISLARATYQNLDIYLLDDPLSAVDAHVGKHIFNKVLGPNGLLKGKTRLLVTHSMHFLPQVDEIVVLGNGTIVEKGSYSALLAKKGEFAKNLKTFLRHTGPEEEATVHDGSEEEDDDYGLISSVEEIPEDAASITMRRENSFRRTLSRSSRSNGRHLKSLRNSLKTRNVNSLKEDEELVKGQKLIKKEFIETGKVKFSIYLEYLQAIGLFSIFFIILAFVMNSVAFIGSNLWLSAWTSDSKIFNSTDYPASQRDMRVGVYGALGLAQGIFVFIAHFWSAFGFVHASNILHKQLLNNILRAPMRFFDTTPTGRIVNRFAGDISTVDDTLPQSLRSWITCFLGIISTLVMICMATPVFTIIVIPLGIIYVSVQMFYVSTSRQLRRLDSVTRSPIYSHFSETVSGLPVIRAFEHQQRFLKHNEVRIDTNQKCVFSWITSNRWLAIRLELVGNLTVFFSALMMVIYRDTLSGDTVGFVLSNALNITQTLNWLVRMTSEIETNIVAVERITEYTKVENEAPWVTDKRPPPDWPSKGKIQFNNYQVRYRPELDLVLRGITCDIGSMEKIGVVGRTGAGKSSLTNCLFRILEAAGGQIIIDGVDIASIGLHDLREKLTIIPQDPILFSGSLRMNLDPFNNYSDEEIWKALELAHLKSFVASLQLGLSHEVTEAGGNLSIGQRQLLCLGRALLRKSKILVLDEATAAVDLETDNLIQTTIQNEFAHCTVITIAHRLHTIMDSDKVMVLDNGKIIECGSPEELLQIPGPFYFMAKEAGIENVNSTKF
Sequence of CYP2B6 (P20813 whole entry): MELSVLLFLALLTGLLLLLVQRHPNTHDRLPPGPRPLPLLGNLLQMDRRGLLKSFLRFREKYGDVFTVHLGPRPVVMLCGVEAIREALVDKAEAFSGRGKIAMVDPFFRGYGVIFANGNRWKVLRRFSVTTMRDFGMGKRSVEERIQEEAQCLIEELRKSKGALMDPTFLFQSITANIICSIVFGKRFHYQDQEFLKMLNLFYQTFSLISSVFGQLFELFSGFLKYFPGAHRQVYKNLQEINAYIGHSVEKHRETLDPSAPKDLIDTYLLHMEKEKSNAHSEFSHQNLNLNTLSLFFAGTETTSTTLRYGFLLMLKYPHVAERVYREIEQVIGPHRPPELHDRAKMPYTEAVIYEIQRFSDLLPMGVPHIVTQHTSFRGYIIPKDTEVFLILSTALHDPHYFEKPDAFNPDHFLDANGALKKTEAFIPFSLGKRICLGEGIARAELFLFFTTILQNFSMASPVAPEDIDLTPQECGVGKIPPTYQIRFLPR

For the compound `CCCCCOc1ccc(-c2ccc(-c3ccc(C(=O)N[C@H]4C[C@@H](O)[C@@H](OCC[N+](C)(C)C)NC(=O)[C@@H]5[C@@H](O)[C@@H](C)CN5C(=O)[C@H]([C@@H](C)O)NC(=O)[C@H]([C@H](O)[C@@H](O)c5ccc(O)cc5)NC(=O)[C@@H]5C[C@@H](O)CN5C(=O)[C@H]([C@@H](C)O)NC4=O)cc3)cc2)cc1` [Rezafungin] ({pTerphenylCO(4''-OnC5H11)}-[Orn(4R-OH,5R-OCH2CH2NMe3+)]T[Hyp][hTyr(3S-OH,4S-OH)]T[Pro(3S-OH,4S-Me)]; lactam 1-C), the “substrate of MRP2” value at MRP2 is recorded as “not a substrate”. Besides, on human P-gp, the “inhibitor of probe substrate transport mediated via P-gp” value is “determined to be an inhibitor; also recorded: could not be ruled out”. In addition, the “time-dependent inhibitor of CYP2D6” value on CYP2D6 was “not a time-dependent inhibitor”. Besides, the “substrate of MDR1” value at MDR1 is “not a substrate”. In addition, the “serious TEAEs, deaths, discontinuations due to a TEAE” value in data set [1] (Study 1) is “no serious TEAEs or deaths or discontinuations due to a TEAE”. The tolerability entry in [1] (once-weekly i.v. infusions, 600-mg loading dose followed by two 400-mg maintenance doses) is recorded as “generally well tolerated”. The “time-dependent inhibitor of CYP3A4” value at CYP3A4 [2] is “not a time-dependent inhibitor”. Also, at CYP1A2 [3], the “time-dependent inhibitor of CYP1A2” value is listed as “not a time-dependent inhibitor”. Besides, the “time-dependent inhibitor of CYP2B6” value on CYP2B6 is “not a time-dependent inhibitor”. Also, on human OATP1B3 [4] (setting [9]), the “inhibitor of probe substrate transport mediated via OATP1B3” value was “determined to be an inhibitor”. Also, the IC50 – broadly, the concentration that inhibits the measured activity by half – is > 6 µM at human OATP1B3 [4] (initial in vitro studies, read-out: IC50, OATP-1B3 uptake transporter (moderate inhibition)); > 25 µM against CYP3A4 [5]; > 6 µM on OCT1 (initial in vitro studies, read-out: IC50, OCT-1 uptake transporter (moderate inhibition)). For the same compound, the “inhibition of CYP1A2” value at CYP1A2 [6] is “Minimal inhibition”. In addition, the inhibition (as a rule, the share of the control response that was lost under treatment) at 10 µM at CYP3A4 [7] was found to be 81%. For the same compound, the “substrate of BCRP” value at BCRP is given as “not a substrate”. Further, on OCT1 (setting [9]), the “inhibitor of probe substrate transport mediated via OCT1” value is listed as “determined to be an inhibitor”. Further, the “substrate of OATP1B3” value on human OATP1B3 [8] is listed as “not to be a substrate”. Also, the “uptake ratio, OATP1B3” value at human OATP1B3 [8] is listed as < 2.
